The results in this text go back to paper doi:10.1101/2024.08.13.607785v1 (biorxiv, 2024).

SMILES strings stand for the structures. Read-outs that look alike come from different tables or passages of the source.

What all share (assay): biochemical
Assay [1] concerns the target Cyclin-dependent kinase 8 ; CDK8 ; P49336 (Homo sapiens, UniProt P49336). The arrangement: species or system mixed lysate of K562, MV4-11, THP-1, NCI-H1155.
The target in assay [2] is Cyclin-dependent kinase 6 ; CDK6 ; Q00534 (Homo sapiens, UniProt Q00534). Also on record: species or system mixed lysate of K562, MV4-11, THP-1, NCI-H1155.
Chain of Cyclin-dependent kinase 6 ; CDK6 ; Q00534 (Q00534 whole entry, one chain of several): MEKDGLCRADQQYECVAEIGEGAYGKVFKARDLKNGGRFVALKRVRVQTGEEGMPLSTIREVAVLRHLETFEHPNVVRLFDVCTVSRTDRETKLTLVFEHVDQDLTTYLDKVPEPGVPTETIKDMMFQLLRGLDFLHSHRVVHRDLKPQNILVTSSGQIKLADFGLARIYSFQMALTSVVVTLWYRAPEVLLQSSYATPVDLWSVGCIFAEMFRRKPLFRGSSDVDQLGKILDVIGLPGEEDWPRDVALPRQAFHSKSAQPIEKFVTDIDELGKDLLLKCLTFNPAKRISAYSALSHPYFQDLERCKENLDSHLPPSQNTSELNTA
The target of assay [3] is Serine/threonine-protein kinase PLK1 ; PLK1 ; P53350 (Homo sapiens, UniProt P53350). Also on record: species or system human cell line lysate.
Chain of Serine/threonine-protein kinase PLK1 ; PLK1 ; P53350 (P53350 whole entry, one chain of several): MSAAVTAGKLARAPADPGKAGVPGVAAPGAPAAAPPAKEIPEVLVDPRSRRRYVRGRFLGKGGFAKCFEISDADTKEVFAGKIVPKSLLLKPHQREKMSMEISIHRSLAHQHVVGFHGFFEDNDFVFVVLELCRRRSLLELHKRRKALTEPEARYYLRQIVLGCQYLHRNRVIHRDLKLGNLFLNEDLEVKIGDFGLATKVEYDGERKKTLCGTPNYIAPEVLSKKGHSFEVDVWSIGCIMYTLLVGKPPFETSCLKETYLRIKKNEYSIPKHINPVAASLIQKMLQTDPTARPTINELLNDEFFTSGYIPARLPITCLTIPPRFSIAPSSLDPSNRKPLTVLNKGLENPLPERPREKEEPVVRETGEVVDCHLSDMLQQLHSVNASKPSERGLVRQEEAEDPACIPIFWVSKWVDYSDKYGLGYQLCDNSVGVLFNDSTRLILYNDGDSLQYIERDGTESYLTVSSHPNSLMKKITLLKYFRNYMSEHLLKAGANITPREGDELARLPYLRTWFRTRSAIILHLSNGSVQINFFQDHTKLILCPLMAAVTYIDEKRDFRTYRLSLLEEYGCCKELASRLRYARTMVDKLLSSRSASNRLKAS
Assay [4] addresses Fructosamine-3-kinase ; FN3K ; Q9H479 (Homo sapiens, UniProt Q9H479). The arrangement: species or system human cell line lysate.
Assay [5] deals with T1, Ephrin type-B receptor 2 ; EPHB2 ; P29323 (Homo sapiens, UniProt P29323).
T1 sequence (P29323 1-1055): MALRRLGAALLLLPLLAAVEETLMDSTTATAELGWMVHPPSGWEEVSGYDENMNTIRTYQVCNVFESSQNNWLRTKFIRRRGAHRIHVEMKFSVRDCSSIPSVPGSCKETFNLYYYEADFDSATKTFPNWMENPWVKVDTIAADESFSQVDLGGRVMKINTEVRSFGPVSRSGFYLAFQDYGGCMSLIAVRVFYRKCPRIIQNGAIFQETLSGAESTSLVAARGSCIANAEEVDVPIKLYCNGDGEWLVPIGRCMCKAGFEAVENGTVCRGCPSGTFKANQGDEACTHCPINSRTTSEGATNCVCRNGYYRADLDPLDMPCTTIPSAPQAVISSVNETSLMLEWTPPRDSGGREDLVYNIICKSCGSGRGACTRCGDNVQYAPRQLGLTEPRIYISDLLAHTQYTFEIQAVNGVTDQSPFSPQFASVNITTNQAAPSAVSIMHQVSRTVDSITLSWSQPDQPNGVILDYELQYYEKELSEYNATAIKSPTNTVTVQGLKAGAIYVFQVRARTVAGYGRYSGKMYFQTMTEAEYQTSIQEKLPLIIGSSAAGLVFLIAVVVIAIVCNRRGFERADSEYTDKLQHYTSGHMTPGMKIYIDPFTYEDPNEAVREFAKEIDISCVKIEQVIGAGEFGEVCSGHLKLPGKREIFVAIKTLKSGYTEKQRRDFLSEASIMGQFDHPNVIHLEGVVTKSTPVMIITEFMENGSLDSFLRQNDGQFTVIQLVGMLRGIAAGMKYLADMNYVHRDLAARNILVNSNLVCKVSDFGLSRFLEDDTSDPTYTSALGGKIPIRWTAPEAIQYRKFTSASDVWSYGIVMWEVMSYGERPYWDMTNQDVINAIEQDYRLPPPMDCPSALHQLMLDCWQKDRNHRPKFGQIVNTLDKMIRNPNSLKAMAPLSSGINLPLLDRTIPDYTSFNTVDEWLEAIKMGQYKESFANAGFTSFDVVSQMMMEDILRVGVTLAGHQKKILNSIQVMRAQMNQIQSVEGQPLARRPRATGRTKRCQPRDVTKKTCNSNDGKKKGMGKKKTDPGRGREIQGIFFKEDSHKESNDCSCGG
Also on record: species or system human cell line lysate.

The target in assay [6] is Isoform IB of Tyrosine-protein kinase ABL1 ; ABL1 ; P00519-2 (Homo sapiens, UniProt P00519). Also on record: species or system human cell line lysate.
Chain of Isoform IB of Tyrosine-protein kinase ABL1 ; ABL1 ; P00519-2 (P00519 whole entry, canonical isoform): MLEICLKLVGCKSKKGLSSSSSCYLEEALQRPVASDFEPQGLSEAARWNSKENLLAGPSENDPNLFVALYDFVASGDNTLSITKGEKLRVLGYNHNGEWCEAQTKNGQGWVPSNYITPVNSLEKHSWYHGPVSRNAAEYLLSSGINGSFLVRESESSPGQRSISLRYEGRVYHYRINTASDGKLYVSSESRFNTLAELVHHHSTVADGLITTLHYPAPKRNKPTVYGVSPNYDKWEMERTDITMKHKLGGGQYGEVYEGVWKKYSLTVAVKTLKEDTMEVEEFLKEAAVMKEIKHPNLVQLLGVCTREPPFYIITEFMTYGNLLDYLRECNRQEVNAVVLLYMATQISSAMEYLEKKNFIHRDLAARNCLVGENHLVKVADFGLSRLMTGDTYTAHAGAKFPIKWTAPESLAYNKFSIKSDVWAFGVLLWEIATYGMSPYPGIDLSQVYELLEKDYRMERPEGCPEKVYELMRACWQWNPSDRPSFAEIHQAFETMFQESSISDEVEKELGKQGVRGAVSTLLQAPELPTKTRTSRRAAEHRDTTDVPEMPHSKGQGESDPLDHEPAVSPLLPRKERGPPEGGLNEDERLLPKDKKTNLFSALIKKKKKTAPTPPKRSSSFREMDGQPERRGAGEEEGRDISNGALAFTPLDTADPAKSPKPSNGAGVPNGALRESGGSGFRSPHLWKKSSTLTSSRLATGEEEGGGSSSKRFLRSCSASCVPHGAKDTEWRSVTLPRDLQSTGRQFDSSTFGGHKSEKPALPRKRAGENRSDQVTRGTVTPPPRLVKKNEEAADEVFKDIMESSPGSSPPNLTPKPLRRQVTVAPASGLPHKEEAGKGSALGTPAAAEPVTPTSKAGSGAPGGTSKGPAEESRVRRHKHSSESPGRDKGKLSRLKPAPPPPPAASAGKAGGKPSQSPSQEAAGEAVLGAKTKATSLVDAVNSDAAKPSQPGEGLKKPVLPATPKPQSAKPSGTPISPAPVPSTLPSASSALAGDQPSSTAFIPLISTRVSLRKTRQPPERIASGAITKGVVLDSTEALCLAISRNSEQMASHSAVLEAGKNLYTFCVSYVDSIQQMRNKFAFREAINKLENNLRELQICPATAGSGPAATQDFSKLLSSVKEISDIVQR
The target of assay [7] is Dual specificity mitogen-activated protein kinase kinase 6 ; MAP2K6 ; P52564 (Homo sapiens, UniProt P52564). Also on record: species or system human cell line lysate.
Chain of Dual specificity mitogen-activated protein kinase kinase 6 ; MAP2K6 ; P52564 (P52564 whole entry, canonical isoform): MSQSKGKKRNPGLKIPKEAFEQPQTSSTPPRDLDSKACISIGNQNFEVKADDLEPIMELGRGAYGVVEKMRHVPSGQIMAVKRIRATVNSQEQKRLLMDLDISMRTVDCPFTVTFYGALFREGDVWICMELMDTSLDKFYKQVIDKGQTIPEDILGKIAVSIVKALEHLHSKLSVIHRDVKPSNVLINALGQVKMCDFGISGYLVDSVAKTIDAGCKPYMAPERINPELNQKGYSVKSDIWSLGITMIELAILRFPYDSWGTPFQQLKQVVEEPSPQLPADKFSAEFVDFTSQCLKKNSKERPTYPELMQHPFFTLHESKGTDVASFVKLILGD
Assay [8] deals with Isoform 2 of Mitogen-activated protein kinase kinase kinase 20 ; MAP3K20 ; Q9NYL2-2 (Homo sapiens, UniProt Q9NYL2). Also on record: species or system human cell line lysate.
Chain of Isoform 2 of Mitogen-activated protein kinase kinase kinase 20 ; MAP3K20 ; Q9NYL2-2 (Q9NYL2 whole entry, canonical isoform): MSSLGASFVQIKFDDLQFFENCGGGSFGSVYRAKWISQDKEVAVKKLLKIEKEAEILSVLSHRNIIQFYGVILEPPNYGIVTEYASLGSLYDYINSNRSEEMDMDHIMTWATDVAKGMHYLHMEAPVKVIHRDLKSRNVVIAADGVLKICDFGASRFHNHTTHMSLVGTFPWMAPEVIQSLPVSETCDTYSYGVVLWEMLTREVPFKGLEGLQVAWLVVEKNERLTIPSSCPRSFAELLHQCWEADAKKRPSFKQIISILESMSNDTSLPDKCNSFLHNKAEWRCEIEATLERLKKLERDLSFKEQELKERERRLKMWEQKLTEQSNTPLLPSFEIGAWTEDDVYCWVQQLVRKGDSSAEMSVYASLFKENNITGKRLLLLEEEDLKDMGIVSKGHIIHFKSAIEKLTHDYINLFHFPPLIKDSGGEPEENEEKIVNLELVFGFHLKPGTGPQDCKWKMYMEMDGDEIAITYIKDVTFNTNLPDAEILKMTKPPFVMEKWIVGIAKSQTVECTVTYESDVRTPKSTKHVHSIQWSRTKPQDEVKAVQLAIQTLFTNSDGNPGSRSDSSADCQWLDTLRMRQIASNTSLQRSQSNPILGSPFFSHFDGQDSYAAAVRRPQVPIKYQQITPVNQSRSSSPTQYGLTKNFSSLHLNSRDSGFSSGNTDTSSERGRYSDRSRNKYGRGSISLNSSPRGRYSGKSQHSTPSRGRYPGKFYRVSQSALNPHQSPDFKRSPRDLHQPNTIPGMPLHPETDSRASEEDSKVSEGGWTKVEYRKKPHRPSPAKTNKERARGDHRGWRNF
The target of assay [9] is Glycosaminoglycan xylosylkinase ; FAM20B ; O75063 (Homo sapiens, UniProt O75063). Also on record: species or system human cell line lysate.
Chain of Glycosaminoglycan xylosylkinase ; FAM20B ; O75063 (O75063 whole entry, canonical isoform): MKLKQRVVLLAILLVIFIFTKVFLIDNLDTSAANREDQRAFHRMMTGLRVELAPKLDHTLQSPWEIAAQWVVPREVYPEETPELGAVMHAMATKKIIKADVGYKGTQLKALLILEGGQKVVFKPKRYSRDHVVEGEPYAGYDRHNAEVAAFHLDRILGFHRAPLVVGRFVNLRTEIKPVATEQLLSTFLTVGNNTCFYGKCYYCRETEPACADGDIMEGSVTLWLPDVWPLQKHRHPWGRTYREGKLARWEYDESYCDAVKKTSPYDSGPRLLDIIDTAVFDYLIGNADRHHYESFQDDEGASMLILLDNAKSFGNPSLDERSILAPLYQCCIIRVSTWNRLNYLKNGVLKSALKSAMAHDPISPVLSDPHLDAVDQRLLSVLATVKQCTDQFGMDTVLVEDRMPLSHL
The target in assay [10] is Isoform 2 of Casein kinase I isoform delta ; CSNK1D ; P48730-2 (Homo sapiens, UniProt P48730). The arrangement: species or system human cell line lysate.
Assay [11] concerns the target Isoform 3 of Casein kinase I isoform alpha ; CSNK1A1 ; P48729-3 (Homo sapiens, UniProt P48729). The arrangement: species or system human cell line lysate.
Where [12] appears, read: read-out: BAY-1251152 (10 µM) / %Intensity relative to DMSO.
Where [13] appears, read: read-out: BAY-1143572 (10 µM) / %Intensity relative to DMSO.

Chain of Fructosamine-3-kinase ; FN3K ; Q9H479 (Q9H479 whole entry): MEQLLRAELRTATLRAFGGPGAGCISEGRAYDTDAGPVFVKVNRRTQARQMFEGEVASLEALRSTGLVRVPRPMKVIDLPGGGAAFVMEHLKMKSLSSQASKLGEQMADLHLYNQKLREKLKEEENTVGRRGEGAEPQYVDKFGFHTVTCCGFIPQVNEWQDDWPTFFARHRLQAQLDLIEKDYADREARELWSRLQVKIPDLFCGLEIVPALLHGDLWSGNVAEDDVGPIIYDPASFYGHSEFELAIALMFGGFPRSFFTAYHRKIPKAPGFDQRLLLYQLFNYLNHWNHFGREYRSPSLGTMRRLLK
Chain of Cyclin-dependent kinase 8 ; CDK8 ; P49336 (P49336 whole entry, one chain of several): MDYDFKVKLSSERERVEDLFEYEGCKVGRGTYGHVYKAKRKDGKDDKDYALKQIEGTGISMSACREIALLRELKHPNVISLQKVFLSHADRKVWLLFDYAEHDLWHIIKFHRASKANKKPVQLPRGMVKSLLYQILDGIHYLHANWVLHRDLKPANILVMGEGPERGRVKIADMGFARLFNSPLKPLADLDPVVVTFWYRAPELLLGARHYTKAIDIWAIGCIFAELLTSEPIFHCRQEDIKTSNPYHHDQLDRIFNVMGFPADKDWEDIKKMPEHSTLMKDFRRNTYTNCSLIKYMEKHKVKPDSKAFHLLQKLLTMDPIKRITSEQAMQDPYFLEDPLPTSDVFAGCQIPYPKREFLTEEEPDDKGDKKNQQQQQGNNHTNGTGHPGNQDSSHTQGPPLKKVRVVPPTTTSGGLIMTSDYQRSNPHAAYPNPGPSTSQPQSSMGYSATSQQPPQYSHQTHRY
Chain of Isoform 3 of Casein kinase I isoform alpha ; CSNK1A1 ; P48729-3 (P48729 whole entry, canonical isoform): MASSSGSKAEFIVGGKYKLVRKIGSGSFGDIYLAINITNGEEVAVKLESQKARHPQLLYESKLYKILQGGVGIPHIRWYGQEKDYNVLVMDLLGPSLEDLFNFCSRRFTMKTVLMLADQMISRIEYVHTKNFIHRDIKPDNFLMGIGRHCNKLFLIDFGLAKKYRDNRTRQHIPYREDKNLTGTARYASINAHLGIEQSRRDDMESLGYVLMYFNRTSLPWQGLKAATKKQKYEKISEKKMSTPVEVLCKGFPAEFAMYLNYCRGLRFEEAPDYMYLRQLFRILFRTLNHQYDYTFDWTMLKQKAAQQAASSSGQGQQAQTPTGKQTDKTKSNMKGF

On to `COc1cc(F)ccc1-c1cc(Nc2cc(CS(C)(=N)=O)ccn2)ncc1F` (stereo not shown) [BAY-1251152], for which the remaining activity at 10 µM in [1] (setting [12]) worked out at 116%; in assay [2] (setting [12]), 82.1%; in assay [3] (setting [12]), 96.8%; in assay [4] (setting [12]), 106%; in assay [5] (setting [12]), 105%; in assay [6] (setting [12]), 83.2%. The remaining activity at 10 µM in [7] (setting [12]) was 123%; in assay [8] (setting [12]), 81.6%; in [9] (setting [12]) it was 123%; in assay [10] (setting [12]) it was 105%; in assay [11] (setting [12]), 111%.
Regarding `COc1cc(F)ccc1-c1ncnc(Nc2cccc(C[S@](C)(=N)=O)c2)n1` [BAY-1143572], the remaining activity at 10 µM in [1] (setting [13]) was 114%; in [2] (setting [13]) it was 94.2%; in [3] (setting [13]) it was 104%; in assay [4] (setting [13]), 114%; in assay [5] (setting [13]) it was 84.3%; in assay [6] (setting [13]) it was 67.4%. Besides, the remaining activity at 10 µM worked out at 142% in assay [7] (setting [13]); 65.2% in assay [8] (setting [13]); 141% in assay [9] (setting [13]); 108% in [10] (setting [13]); 115% in [11] (setting [13]).
